One experiment has as its target T1, SHP-2 enzyme (Homo sapiens, UniProt Q06124).
T1 construct: Homogeneous Full Length SHP-2 Assay Kit (BPS Bioscience #79330); purchased BPS Bioscience 79330
T1 sequence (Q06124 1-593): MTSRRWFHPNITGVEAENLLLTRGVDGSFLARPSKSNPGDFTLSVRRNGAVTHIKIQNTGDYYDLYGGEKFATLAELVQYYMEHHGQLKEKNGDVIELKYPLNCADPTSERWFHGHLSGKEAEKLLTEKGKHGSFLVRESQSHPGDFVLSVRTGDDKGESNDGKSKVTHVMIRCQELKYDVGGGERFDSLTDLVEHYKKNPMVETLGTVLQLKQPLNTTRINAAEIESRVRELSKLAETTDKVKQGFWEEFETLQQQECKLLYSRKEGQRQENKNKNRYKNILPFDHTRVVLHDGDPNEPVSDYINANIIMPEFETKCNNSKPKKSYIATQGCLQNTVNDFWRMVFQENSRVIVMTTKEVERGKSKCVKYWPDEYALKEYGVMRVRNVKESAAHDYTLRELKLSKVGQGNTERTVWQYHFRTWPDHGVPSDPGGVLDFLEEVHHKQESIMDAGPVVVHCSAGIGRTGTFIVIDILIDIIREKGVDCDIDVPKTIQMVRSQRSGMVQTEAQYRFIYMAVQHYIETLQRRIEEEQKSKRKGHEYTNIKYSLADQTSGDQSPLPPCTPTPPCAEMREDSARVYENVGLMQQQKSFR
As to the kind of experiment: Phosphatase activity assay (Homogeneous Full Length SHP-2 Assay Kit, DiFMUP substrate). It is filed as biochemical. Conditions: full length SHP-2 activated with 0.5 μM SHP-2 activating Peptide; 1 hour co-incubation; DiFMUP 50 μM, 30 min. On the procedure:
IC50 values were assayed using Homogeneous Full Length SHP-2 Assay Kit (BPS Bioscience #79330), which uses 6,8-difluoro-4-methylumbelliferone phosphate (DiFMUP) as the reaction substrate. SHP2 enzyme solution (diluted to 0.04 ng/μL with 1*buffer) was mixed with 0.5 μM SHP-2 activating Peptide in a 1*buffer solution containing 2.5 mM DTT to activate PTP. At the same time, DMSO (0.1% (V/V)) or the compounds (concentration: 0.5 nM to 1 μM) were added, mixed and co-incubated for 1 hour. DiFMUP (50 μM, total reaction system volume of 20 μL) was added, and the reaction was started. After 30 min of incubation, the fluorescence intensity of the reaction system (excitation wavelength: 350 nm, emission wavelength: 460 nm) was measured by Tecan Infinite M1000.

The subject of another experiment is MV-4-11 cell. As to the kind of experiment: Cell proliferation assay (Cell Titer-Glo). It is filed as cell-based. Conditions: Homo sapiens, MV4-11, 96 h, inhibition of MV-4-11 cell proliferation; Cell Titer-Glo on day 4. Here is the method:
MV 411 cells (20000 cells/well) were inoculated and cultured in 96 (Corning #3916) well plates, and the medium was 80 μL/well (IMDM with 10% fetal bovine serum (FBS), Gibco #10099-141C). After 24 hours of incubation, 20 μL of the compounds of the present invention configured to different concentrations (DMSO final concentration of 0.1% (V/V)) were added. On day 4, 60 μL of Cell Titer-Glo (Promega #G7558) was added to each well and mixed at 80 rpm, 25° C., 15 min, and the fluorescence values were detected by Victor X5 (PE).
Background: In ATP-based viability assays light output follows the ATP content of the culture.

By IC50 is commonly meant the concentration at which inhibition is half-maximal. For the molecule `Nc1nc(N2CCC3(CC2)Cc2ccccc2C3N)cnc1C(=O)N1CCn2nccc2C1` (centres unmarked) [Compound 37], the IC50 at SHP-2 enzyme turned out to be 5 nM; in the experiment on MV-4-11 cell, 172 nM.
For `Cn1c(N2CCC3(CC2)Cc2ccccc2C3N)nc(N)c(C(=O)N2CCCn3nccc32)c1=O` (centres unmarked) [Compound 40], in that order: 59 nM and 59 nM.
For `Nc1nc(N2CCC3(CC2)Cc2ccccc2C3N)nnc1C(=O)N1CCCn2nccc21` (centres unmarked) [Compound 45], in that order: 7 nM and 176 nM.
For `NC1c2ccccc2CC12CCN(c1ncc(C(=O)N3CCc4ncsc4C3)c3nccn13)CC2` (centres unmarked) [Compound 46], in that order: 29 nM and 166 nM.
As to `Nc1nc(N2CCC3(CC2)Cc2ccccc2C3N)c(F)nc1C(=O)N1CCCn2nccc21` (centres unmarked) [Compound 49], the IC50 amounted to 8 nM on SHP-2 enzyme and 241 nM in the experiment with MV-4-11 cell.
For `Cn1cnc2c1CCCN2C(=O)c1ncc(N2CCC3(CC2)Cc2ccccc2C3N)nc1N` (centres unmarked) [Compound 50], in that order: 14 nM and 241 nM.
With `Nc1nc(N2CCC3(CC2)Cc2ccccc2C3N)cnc1C(=O)N1CCc2nc(Cl)ccc21` (centres unmarked) [Compound 52], the IC50 turned out to be 4 nM at SHP-2 enzyme and 196 nM in the experiment with MV-4-11 cell.
Consider `Nc1nc(N2CCC3(CC2)Cc2cc(Cl)ccc2C3N)cnc1C(=O)N1CCc2ncccc21` (centres unmarked) [Compound 53], for which the figures for the IC50 at SHP-2 enzyme and in the experiment on MV-4-11 cell were 4 nM and 192 nM, respectively.
Regarding `CC1(C)CN(C(=O)c2ncc(N3CCC4(CC3)Cc3ccccc3C4N)nc2N)Cc2scnc21` (centres unmarked) [Compound 54], the results for the IC50 at SHP-2 enzyme and in the experiment on MV-4-11 cell were 8 nM and 206 nM, respectively.
Consider `CC1(C)CN(C(=O)c2ncc(N3CCC4(CC3)Cc3ccccc3C4N)nc2N)Cc2sc(N)nc21` (centres unmarked) [Compound 61], for which the IC50 at SHP-2 enzyme was found to be 7 nM; in the experiment with MV-4-11 cell, 71 nM.
As to `COc1ccc2c(c1)C(N)C1(CCN(c3cnc(C(=O)N4CCc5nc(N)ccc54)c(N)n3)CC1)C2` (centres unmarked) [Compound 62], the IC50 on SHP-2 enzyme came out at 5 nM; in the experiment on MV-4-11 cell, 156 nM.
Take `Cc1ccc2c(c1)C(N)C1(CCN(c3cnc(C(=O)N4CCc5nc(N)ccc54)c(N)n3)CC1)C2` (centres unmarked) [Compound 64]: the IC50 stood at 5 nM on SHP-2 enzyme and 70 nM in the experiment on MV-4-11 cell.
Take `Cc1nc(C(=O)N2Cc3sc(N)nc3C(F)(F)C2)c(N)nc1N1CCC2(CC1)Cc1ccccc1C2N` (centres unmarked) [Compound 65]: the IC50 worked out at 4 nM on SHP-2 enzyme and 5 nM in the experiment with MV-4-11 cell.
For `Nc1ccc2c(n1)CCN2C(=O)c1ncc(N2CCC3(CC2)Cc2ccc(CO)cc2C3N)nc1N` (centres unmarked) [Compound 66], in that order: 9 nM and 196 nM.
`Nc1nc(N2CCC3(CC2)Cc2ccccc2C3N)cnc1C(=O)N1CCCc2n[nH]cc21` (centres unmarked) [Compound 67]: the results for the IC50 at SHP-2 enzyme and in the experiment on MV-4-11 cell were 7 nM and 79 nM, respectively.
For the molecule `Nc1ccc2c(n1)CCN2C(=O)c1cnc(N2CCC3(CC2)Cc2ccccc2C3N)c(CO)n1` (centres unmarked) [Compound 68], the values for the IC50 on SHP-2 enzyme and with MV-4-11 cell were 7 nM and 125 nM, respectively.
In the case of `Nc1nc2c(s1)CN(C(=O)c1ncc(N3CCC4(CC3)Cc3ccccc3C4N)nc1N)CC2` (centres unmarked) [Compound 75], the figures for the IC50 on SHP-2 enzyme and in the experiment with MV-4-11 cell were 5 nM and 9 nM, respectively.
`COc1ccc2c(c1)CC1(CCN(c3cnc(C(=O)N4CCCn5nccc54)c(N)n3)CC1)C2N` (centres unmarked) [Compound 76]: the half-inhibitory concentration (IC50) at SHP-2 enzyme amounted to 10 nM; in the experiment on MV-4-11 cell it was 191 nM.
As to `Nc1nc(N2CCC3(CC2)Cc2c(F)cccc2C3N)nnc1C(=O)N1CCCn2nccc21` (centres unmarked) [Compound 77], the IC50 at SHP-2 enzyme worked out at 11 nM; with MV-4-11 cell, 150 nM.
Regarding `Nc1nc(N2CCC3(CC2)Cc2c(F)cccc2C3N)c(F)nc1C(=O)N1CCCn2nccc21` (centres unmarked) [Compound 78], the figures for the IC50 at SHP-2 enzyme and with MV-4-11 cell were 10 nM and 218 nM, respectively.
`Nc1nc(N2CCC3(CC2)Cc2ccncc2C3N)cnc1C(=O)N1CCCn2nccc21` (centres unmarked) [Compound 79]: the IC50 was determined as 14 nM on SHP-2 enzyme and 257 nM in the experiment with MV-4-11 cell.
For `Nc1nc(N2CCC3(CC2)Cc2ccccc2C3N)cnc1C(=O)N1CCc2nc(F)ccc21` (centres unmarked) [Compound 80], in that order: 4 nM and 127 nM.
For `Nc1nc(N2CCC3(CC2)Cc2cc(F)ccc2C3N)cnc1C(=O)N1CCc2nc(F)ccc21` (centres unmarked) [Compound 81], in that order: 4 nM and 128 nM.
Regarding `Nc1nc2c(s1)CN(C(=O)c1nc(Cl)c(N3CCC4(CC3)Cc3ccccc3C4N)nc1N)CC2` (centres unmarked) [Compound 83], the IC50 at SHP-2 enzyme was determined as 4 nM; in the experiment with MV-4-11 cell, 17 nM.
As to `Cc1nc(C(=O)N2CCc3nc(N)sc3C2)c(N)nc1N1CCC2(CC1)Cc1ccccc1C2N` (centres unmarked) [Compound 85], the IC50 was determined as 4 nM on SHP-2 enzyme and 12 nM in the experiment with MV-4-11 cell.
For `Nc1nc(N2CCC3(CC2)Cc2ncsc2C3N)cnc1C(=O)N1CCCn2nccc21` (centres unmarked) [Compound 86], in that order: 8 nM and 286 nM.
On to `CC1(C)CCN(C(=O)c2ncc(N3CCC4(CC3)Cc3ccccc3C4N)nc2N)c2ccnn21` (centres unmarked) [Compound 87], for which the IC50 on SHP-2 enzyme is 9 nM; with MV-4-11 cell, 159 nM.
Regarding `CC1CN(C(=O)c2ncc(N3CCC4(CC3)Cc3cc(F)ccc3C4N)nc2N)c2ccc(N)nc21` (centres unmarked) [Compound 88], the IC50 on SHP-2 enzyme is 5 nM; in the experiment with MV-4-11 cell, 235 nM.
For `CC1CN(C(=O)c2ncc(N3CCC4(CC3)Cc3ccccc3C4N)nc2N)c2ccc(N)nc21` (centres unmarked) [Compound 89], in that order: 4 nM and 127 nM.
For `Nc1ccc2c(n1)CCN2C(=O)c1ncc(N2CCC3(CC2)Cc2ccc(Cl)cc2C3N)nc1N` (centres unmarked) [Compound 91], in that order: 3 nM and 61 nM.
For `CNc1ccc2c(n1)CCN2C(=O)c1ncc(N2CCC3(CC2)Cc2ccccc2C3N)nc1N` (centres unmarked) [Compound 92], in that order: 4 nM and 119 nM.
As to `COc1ccc2c(c1)C(N)C1(CCN(c3cnc(C(=O)N4Cc5sc(N)nc5C(C)(C)C4)c(N)n3)CC1)C2` (centres unmarked) [Compound 93], the IC50 was determined as 8 nM at SHP-2 enzyme and 114 nM in the experiment with MV-4-11 cell.
For `CC1(C)CN(C(=O)c2ncc(N3CCC4(CC3)Cc3ccc(F)cc3C4N)nc2N)Cc2sc(N)nc21` (centres unmarked) [Compound 94], in that order: 7 nM and 110 nM.
In the case of `Nc1ccc2c(n1)CCN2C(=O)c1ncc(N2CCC3(CC2)Cc2ccc(F)cc2C3N)nc1N` (centres unmarked) [Compound 95], the IC50 on SHP-2 enzyme stood at 3 nM; in the experiment on MV-4-11 cell, 176 nM.
`Nc1ccc2c(c1)CCN2C(=O)c1ncc(N2CCC3(CC2)Cc2ccccc2C3N)nc1N` (centres unmarked) [Compound 96]: the IC50 at SHP-2 enzyme was found to be 4 nM; in the experiment on MV-4-11 cell, 157 nM.
For `Cc1cc2c(cc1C)C(N)C1(CCN(c3cnc(C(=O)N4CCc5nc(N)sc5C4)c(N)n3)CC1)C2` (centres unmarked) [Compound 99], the IC50 at SHP-2 enzyme turned out to be 10 nM; in the experiment with MV-4-11 cell, 46 nM.
As for `Cc1nc(C(=O)N2CCc3nc(N)ccc32)c(N)nc1N1CCC2(CC1)Cc1ccccc1C2N` (centres unmarked) [Compound 100], the IC50 on SHP-2 enzyme stood at 7 nM; with MV-4-11 cell, 51 nM.
For `Cc1nc(C(=O)N2Cc3sc(N)nc3C(C)(C)C2)c(N)nc1N1CCC2(CC1)Cc1ccccc1C2N` (centres unmarked) [Compound 101], in that order: 18 nM and 85 nM.
For `Cc1ccc2c(c1)C(N)C1(CCN(c3cnc(C(=O)N4Cc5sc(N)nc5C(C)(C)C4)c(N)n3)CC1)C2` (centres unmarked) [Compound 102], in that order: 11 nM and 57 nM.
Turning to `CNc1ccc2c(n1)CCN2C(=O)c1nc(C)c(N2CCC3(CC2)Cc2ccccc2C3N)nc1N` (centres unmarked) [Compound 103], the concentration for half-maximal inhibition (IC50) was 13 nM on SHP-2 enzyme and 65 nM with MV-4-11 cell.
For `Cc1ccc2c(c1)C(N)C1(CCN(c3nc(N)c(C(=O)N4CCc5nc(N)ccc54)nc3C)CC1)C2` (centres unmarked) [Compound 104], in that order: 10 nM and 58 nM.
As for `Cc1nc(C(=O)N2Cc3sc(N)nc3C(C)C2)c(N)nc1N1CCC2(CC1)Cc1ccccc1C2N` (centres unmarked) [Compound 105], the IC50 was 13 nM on SHP-2 enzyme and 25 nM in the experiment on MV-4-11 cell.
`Nc1ccc2c(n1)CCN2C(=O)c1nc(C2CC2)c(N2CCC3(CC2)Cc2ccccc2C3N)nc1N` (centres unmarked) [Compound 106]: the figures for the IC50 at SHP-2 enzyme and in the experiment on MV-4-11 cell were 15 nM and 164 nM, respectively.

(Values after patent US20240025924A1, “HETEROCYCLE SUBSTITUTED KETONE DERIVATIVE, AND COMPOSITION AND MEDICINAL USE THEREOF” (SHANGHAI HAIYAN PHARMACEUTICAL TECHNOLOGY CO., LTD., priority 2021, published 2024).)
